We go through 7 compounds from ChEMBL document CHEMBL1151209, “New quassinoids, javanicolides C and D and javanicosides B--F, from seeds of Brucea javanica” (J Nat Prod, 2004).

SMILES strings stand for the structures. In brackets after ≈: the same amount, converted by molar mass.

This experiment has as its system P388. Briefly: Cytotoxicity against mouse P388 cells after 48 hrs by MTT assay. Format: functional, cell-based. As to conditions: P388, 48 h.
What is called IC50 is the concentration at which inhibition is half-maximal. Take `COC(=O)[C@@]12OC[C@]34[C@H]([C@@H](O)[C@@H]1O)[C@@]1(C)C[C@@H](O)[C@@H](O)[C@@H](C)[C@@H]1C[C@H]3OC(=O)[C@H](OC(=O)C=C(C)C)[C@@H]24` [JAVANICOLIDE C]: the IC50 is more than 100 µg/mL.

For `COC(=O)[C@@]12OC[C@]34[C@H]([C@@H](O)[C@@H]1O)[C@@]1(C)[C@H](O)[C@@H](O)C=C(C)[C@@H]1C[C@H]3OC(=O)[C@H](OC(=O)/C=C(\C)C(C)(C)O)[C@@H]24` [JAVANICOLIDE D], the IC50 was 18 µg/mL (≈ 31.8 µM).

Turning to `COC(=O)[C@@]12OC[C@]34[C@H]([C@@H](O)[C@@H]1O)[C@@]1(C)C=C(O[C@@H]5O[C@H](CO)[C@@H](O)[C@H](O)[C@H]5O)C(=O)[C@@H](C)[C@@H]1C[C@H]3OC(=O)[C@H](OC(=O)CC(C)C(C)(C)OC(C)=O)[C@@H]24` (some centres not stated) [JAVANICOSIDE E], the IC50 was found to be 16 µg/mL (≈ 20.8 µM). This IC50 and that of the compound before are within 1.5-fold of each other.

`CC/C(C)=C/C(=O)O[C@H]1C(=O)O[C@@H]2C[C@H]3[C@H](C)C(=O)C(O[C@@H]4O[C@H](CO)[C@@H](O)[C@H](O)[C@H]4O)=C[C@]3(C)[C@H]3[C@@H](O)[C@H](O)[C@@]4(C(=O)OC)OC[C@]32[C@@H]14` [JAVANICOSIDE F]: inhibition was half-maximal at 50 µg/mL (≈ 71.8 µM) (IC50).

The compound `CC/C(=C\C(=O)O[C@H]1C(=O)O[C@@H]2C[C@H]3[C@H](C)C(=O)C(O[C@@H]4O[C@H](CO)[C@@H](O)[C@H](O)[C@H]4O)=C[C@]3(C)[C@H]3[C@@H](O)[C@H](O)[C@@]4(C(=O)OC)OC[C@]32[C@@H]14)C(C)(C)O` [JAVANICOSIDE D] returned an IC50 of 89 µg/mL (≈ 120 µM).

`COC(=O)[C@@]12OC[C@@]34[C@@H](CC5=C(C)C(=O)C(O[C@@H]6O[C@H](CO)[C@@H](O)[C@H](O)[C@H]6O)=C[C@]5(C)[C@H]3[C@@H](O)[C@@H]1O)OC(=O)[C@H](OC(=O)C=C(C)C)[C@@H]24` [JAVANICOSIDE C] displayed an IC50 of 18 µg/mL (≈ 26.4 µM).

As to `COC(=O)[C@@]12OC[C@]34[C@H]([C@@H](O)[C@@H]1O)[C@@]1(C)C(=O)C(O[C@@H]5O[C@H](CO)[C@@H](O)[C@H](O)[C@H]5O)=C[C@@H](C)[C@@H]1C[C@H]3OC(=O)[C@H](OC(=O)CC(C)C)[C@@H]24` [JAVANICOSIDE B], the IC50 turned out to be 5.6 µg/mL (≈ 8.18 µM).
